In patent US20230083012A1, “DIHYDROPYRIMIDINE DERIVATIVES AND USES THEREOF IN THE TREATMENT OF HBV INFECTION OR OF HBV-INDUCED DISEASES” (priority 2019, published 2023) one finds CC50 and EC50 data, which are given here for 24 compounds.

Data set [1] is described as follows: Cytotoxicity determination in HepG2.2.15 cells (CCK-8 cell viability). The conditions noted are these: human, 6 days treatment, CCK-8 assay, highest concentration 100 uM. In kind it is cell-based. In outline: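 Viability measured by CCK-8 absorbance (450 nm, 630 nm reference, 2.5 h at 37° C) after six days of treatment, medium and compound renewed on day 3. Top concentration 100 uM, eight threefold dilutions in triplicate; cells plated at 5,000/well in 2% FBS medium; CC50 derived.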

The next data set has as its system HBV. The data set is described as follows: Anti-HBV activity in HepG2.2.15 cells (HBV DNA in culture medium by qPCR). In kind it is cell-based. The conditions noted are these: Hepatitis B virus, HepG2.2.15, 144 h. In outline:
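Secreted HBV DNA was measured by real-time PCR after 6-day compound exposure of HepG2.2.15 cells (2% FBS, 37 °C, re-dosed after 3 days), giving EC50 from 8-point 1:3 series starting at 10 or 1 uM. Cytotoxicity (CC50) run separately at lower cell density, top 100 uM.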
(In general: Real-time PCR tracks product formation cycle by cycle.)

[2] abbreviates: HepG2.2.15 cells, 6 days treatment, HBV DNA in culture medium quantified by real-time PCR, read-out: EC50.

Read-outs that look alike come from different tables or passages of the source.

Broadly, the CC50 is the concentration giving 50% cytotoxicity. Lower therefore signals greater toxicity to the cells. Usually EC50 stands for the concentration giving half of the maximal effect. In turn, `CCOC(=O)C1=C(CN2CC(F)(F)[C@@H]3CN([C@H]4C[C@@H](C(=O)O)C4)C(=O)[C@@H]32)NC(c2nccs2)=N[C@H]1c1cccc(F)c1C` (single isomer, unassigned) [Compound 192] registered a CC50 at 6 days in data set [1] of 52900 nM. Further, the EC50 in the data set on HBV (setting [2]) worked out at 16.6 nM.

Compound `CCOC(=O)C1=C(CN2CC(F)(F)[C@@H]3CN(S(=O)(=O)[C@H]4C[C@](C)(C(=O)O)C4)C[C@@H]32)NC(c2nccs2)=N[C@H]1c1cccc(F)c1C` (single isomer, unassigned) [Compound 205A] returned a CC50 at 6 days in data set [1] above 50000 nM. Further, the half-maximal effective concentration (EC50) with HBV (setting [2]) came out at 114 nM.

Consider `CCOC(=O)C1=C(CN2CC(F)(F)[C@@H]3[C@H]2CCN3CC(=O)O)NC(c2nccs2)=N[C@H]1c1cccc(F)c1C` (single isomer, unassigned) [Compound 6A], for which the midpoint of cytotoxicity in data set [1], the CC50 at 6 days, lay at 30400 nM. The EC50 in the data set on HBV (setting [2]) came out at 3.6 nM.

In turn, `CCOC(=O)C1=C(CN2CC(F)(F)[C@H]3[C@@H]2CCN3CCC(C)(C)C(=O)O)NC(c2nccs2)=N[C@H]1c1ccc(F)cc1Cl` (single isomer, unassigned) [Compound 141] showed a CC50 at 6 days in data set [1] of 26700 nM. In addition, in the data set on HBV (setting [2]), the EC50 was 3.5 nM.

As for `CCOC(=O)C1=C(CN2CC(F)(F)C3C2CN(C(C)=O)N3CCC(C)(C)C(=O)O)NC(c2nccs2)=N[C@H]1c1cccc(F)c1C` (stereo partly drawn) [Compound 70, 4-(2-acetyl-4-(((S)-5-(ethoxycarbonyl)-6-(3-fluoro-2-methylphenyl)-2-(thiazol-2-yl)-3,6-dihydropyrimidin-4-yl)methyl)-6,6-difluorohexahydropyrrolo[3,2-c]pyrazol-1(2H)-yl)-2,2-dimethylbutanoic acid], the CC50 at 6 days in data set [1] was found to be 27100 nM. The EC50 in the data set on HBV (setting [2]) came out at 8.1 nM.

In turn, `COC(=O)C1=C(CN2CC(F)(F)[C@@H]3C(=O)N(CC(C)(C)C(=O)O)C[C@@H]32)NC(c2nccs2)=N[C@H]1c1ccc(F)cc1Cl` (single isomer, unassigned) [Compound 28, 3-((cis)-1-((6-(2-chloro-4-fluorophenyl)-5-(methoxycarbonyl)-2-(thiazol-2-yl)-3,6-dihydropyrimidin-4-yl)methyl)-3,3-difluoro-4-oxohexahydropyrrolo[3,4-b]pyrrol-5(1H)-yl)-2,2-dimethylpropanoic acid] gave a CC50 at 6 days in data set [1] above 100000 nM. Besides, the EC50 in the data set with HBV (setting [2]) was 28.2 nM.

Take `CCOC(=O)C1=C(CN2CC(F)(F)[C@H]3[C@@H]2CCN3CCC(C)(C)C(=O)O)NC(c2nccn2C)=N[C@H]1c1cccc(F)c1C` (single isomer, unassigned) [Compound 146, 4-((cis)-4-((5-(Ethoxycarbonyl)-6-(3-fluoro-2-methylphenyl)-2-(1-methyl-1H-imidazol-2-yl)-3,6-dihydropyrimidin-4-yl)methyl)-6,6-difluorohexahydropyrrolo[3,2-b]pyrrol-1(2H)-yl)-2,2-dimethylbutanoic acid]: the CC50 at 6 days in data set [1] came out at 32200 nM. The EC50 in the data set on HBV (setting [2]) came to 13.1 nM.

`CCOC(=O)C1=C(CN2CC(F)(F)[C@H]3[C@@H]2CCN3C[C@@H](C)C(=O)O)NC(c2nccs2)=N[C@H]1c1ccc(F)cc1Cl` (single isomer, unassigned) [Compound 135A, 3-((cis)-4-((6-(2-chloro-4-fluorophenyl)-5-(ethoxycarbonyl)-2-(thiazol-2-yl)-3,6-dihydropyrimidin-4-yl)methyl)-6,6-difluorohexahydropyrrolo[3,2-b]pyrrol-1(2H)-yl)-2-methylpropanoic acid] showed a CC50 at 6 days in data set [1] of 25900 nM. In addition, the EC50 in the data set on HBV (setting [2]) came out at 2.4 nM.

As for `CCOC(=O)C1=C(CN2CC(F)(F)[C@@H]3[C@H]2CN(C(=O)C(F)F)N3CCC(C)(C)C(=O)O)NC(c2nccs2)=N[C@H]1c1cccc(F)c1C` (single isomer, unassigned) [Compound 75], in data set [1], the CC50 at 6 days stood at 22600 nM. The same compound showed an EC50 with HBV of 40 nM.

Compound `CCOC(=O)C1=C(CN2CC(F)(F)[C@H]3[C@@H]2CCN3CC(=O)O)NC(c2nccs2)=N[C@H]1c1cccc(F)c1C` (single isomer, unassigned) [Compound 6B] showed a CC50 at 6 days in data set [1] of 34700 nM. In addition, the EC50 in the data set on HBV (setting [2]) is 382 nM.

Regarding `CCOC(=O)C1=C(CN2CC(F)(F)[C@@H]3C(=O)N([C@@H](C)C(=O)O)C[C@@H]32)NC(c2nccs2)=N[C@H]1c1cccc(F)c1C` (single isomer, unassigned) [Compound 180], the CC50 at 6 days in data set [1] was above 100000 nM. In addition, in the data set with HBV (setting [2]), the EC50 amounted to 92.6 nM.

`CCOC(=O)C1=C(CN2CC(F)(F)[C@@H]3C(=O)N(CCC(C)(C)C(=O)O)C[C@@H]32)NC(c2nccs2)=N[C@H]1c1cccc(F)c1C` (single isomer, unassigned) [Compound 193] displayed a CC50 at 6 days in data set [1] of 48200 nM. For the same compound, the EC50 in the data set with HBV (setting [2]) is 12.1 nM.

`COC(=O)C1=C(CN2CC(F)(F)C3CN(CC(C)(C)C(=O)O)CC32)NC(c2nccs2)=N[C@H]1c1cccc(F)c1C` (single isomer, unassigned) [Compound 19B, 3-((cis)-3,3-difluoro-1-((6-(3-fluoro-2-methylphenyl)-5-(methoxycarbonyl)-2-(thiazol-2-yl)-3,6-dihydropyrimidin-4-yl)methyl)hexahydropyrrolo[3,4-b]pyrrol-5(1H)-yl)-2,2-dimethylpropanoic acid] yielded a CC50 at 6 days in data set [1] of 24200 nM. The concentration for a half-maximal effect (EC50) in the data set on HBV (setting [2]) turned out to be 49.3 nM.

Regarding `CCOC(=O)C1=C(CN2CC(F)(F)[C@H]3CN([C@H](C)C(=O)O)C[C@H]32)NC(c2nccs2)=N[C@H]1c1cccc(F)c1C` (single isomer, unassigned) [Compound 14E], the CC50 at 6 days in data set [1] worked out at 85300 nM. Also, the EC50 in the data set on HBV (setting [2]) is 62.3 nM.

Regarding `CCOC(=O)C1=C(CN2CC(F)(F)[C@H]3[C@@H]2CCN3[C@H]2C[C@H](CC(=O)O)C2)NC(c2nccs2)=N[C@H]1c1cccc(F)c1C` (single isomer, unassigned) [Compound 123B], in data set [1], half-maximal cytotoxicity (CC50 at 6 days) was put at 16100 nM. The EC50 in the data set on HBV (setting [2]) worked out at 9 nM.

Consider `CCOC(=O)C1=C(CN2CC(F)(F)[C@H]3[C@@H]2CCN3CC(C)(C)C(=O)O)NC(c2nccs2)=N[C@@H]1c1cccc(O)c1C` (single isomer, unassigned) [Compound 106, (cis)-3-(4-((5-(ethoxycarbonyl)-6-(3-hydroxy-2-methylphenyl)-2-(thiazol-2-yl)-3,6-dihydropyrimidin-4-yl)methyl)-6,6-difluorohexahydropyrrolo[3,2-b]pyrrol-1(2H)-yl)-2,2-dimethylpropanoic acid], for which, in data set [1], half-maximal cytotoxicity (CC50 at 6 days) was put at 39500 nM. In the data set with HBV (setting [2]), the EC50 was 20 nM.

As for `CCOC(=O)C1=C(CN2CC(F)(F)[C@H]3[C@@H]2CN(C(C)=O)N3CCC(C)(C)C(=O)O)NC(c2nccs2)=N[C@H]1c1ccc(F)c(F)c1Cl` (single isomer, unassigned) [Compound 77B, 4-((cis)-2-acetyl-4-((6-(2-chloro-3,4-difluorophenyl)-5-(ethoxycarbonyl)-2-(thiazol-2-yl)-3,6-dihydropyrimidin-4-yl)methyl)-6,6-difluorohexahydropyrrolo[3,2-c]pyrazol-1(2H)-yl)-2,2-dimethylbutanoic acid], the cytotoxic concentration (CC50) at 6 days in data set [1] worked out at 17500 nM. Moreover, the EC50 in the data set on HBV (setting [2]) is 15 nM.

With `CCOC(=O)C1=C(CN2CC(F)(F)[C@@H]3CN([C@H]4CC[C@H](C(=O)O)CC4)C(=O)[C@@H]32)NC(c2nccs2)=N[C@H]1c1cccc(F)c1C` (single isomer, unassigned) [Compound 185B], in data set [1], the CC50 at 6 days is 27600 nM. Besides, the EC50 in the data set with HBV (setting [2]) is 8.3 nM.

With `CCOC(=O)C1=C(CN2CC(F)(F)[C@@H]3[C@H]2CN(C)N3CCC(C)(C)C(=O)O)NC(c2nccs2)=N[C@@H]1c1ccc(F)nc1C` (single isomer, unassigned) [Compound 96], the CC50 at 6 days in data set [1] was above 100000 nM. Moreover, in the data set with HBV (setting [2]), the EC50 is 50 nM.

`[H][C@]1(N2CC[C@H]3[C@@H]2C(F)(F)CN3CC2=C(C(=O)OC)[C@H](c3cccc(F)c3F)N=C(c3nccs3)N2)C[C@@]2(C[C@@H](C(=O)O)C2)C1` (single isomer, unassigned) [Compound 120A] came in with a CC50 at 6 days in data set [1] of 28100 nM. For the same compound, in the data set on HBV (setting [2]), the EC50 was found to be 12 nM.

As for `CCOC(=O)C1=C(CN2CC(F)(F)[C@@H]3CN(CC(C)(C)C(=O)O)C[C@@H]32)NC(c2nccs2)=N[C@@H]1c1ccc(F)nc1C` (single isomer, unassigned) [Compound 201, 3-((cis)-1-((5-(ethoxycarbonyl)-6-(6-fluoro-2-methylpyridin-3-yl)-2-(thiazol-2-yl)-3,6-dihydropyrimidin-4-yl)methyl)-3,3-difluorohexahydropyrrolo[3,4-b]pyrrol-5(1H)-yl)-2,2-dimethylpropanoic acid], in data set [1], the CC50 at 6 days was above 100000 nM. The EC50 in the data set with HBV (setting [2]) turned out to be 72.6 nM.

In turn, `CCOC(=O)C1=C(CN2CC(F)(F)C3C(=O)N(C[C@@H](CC)C(=O)O)C[C@@H]32)NC(c2nccs2)=N[C@H]1c1cccc(F)c1C` (single isomer, unassigned) [Compound 182A] showed a CC50 at 6 days in data set [1] of 49600 nM. Further, in the data set with HBV (setting [2]), the EC50 was found to be 23.9 nM.

The compound `CCOC(=O)C1=C(CN2CC(F)(F)[C@@H]3[C@H]2CN(CC(F)F)N3CCC(C)(C)C(=O)O)NC(c2nccs2)=N[C@H]1c1cccc(F)c1C` (single isomer, unassigned) [Compound 91] showed a CC50 at 6 days in data set [1] of 8800 nM. Also, the EC50 with HBV (setting [2]) worked out at 71 nM.

Compound `CCOC(=O)C1=C(CN2CC(F)(F)[C@H]3[C@@H]2CCN3c2ncc(C(=O)O)cn2)NC(c2nccs2)=N[C@H]1c1cccc(F)c1C` (single isomer, unassigned) [Compound 150] yielded a CC50 at 6 days in data set [1] of 15000 nM. In the data set on HBV (setting [2]), the EC50 was determined as 57 nM.
